Where “and” joins values, the source holds several entries; their conditions need not be identical. Equal values may be shown once. Numbers after ± are expanded uncertainties.
Test: molar heat capacity at constant pressure
Settings: 101.33 kPa, Small (less than 1 g) adiabatic calorimetry

CC(C)(C)c1ccc(Oc2ccc([N+](=O)[O-])cc2)cc1 [1-(tert-butyl)-4-(4-nitrophenoxy)benzene]
Settings | molar heat capacity at constant pressure
210.18 K, Glass | 258.75 ± 1.3 J/K/mol
210.65 K, Crystal | 255.67 ± 1.3 J/K/mol
211.38 K, Glass | 260.08 ± 1.3 J/K/mol
211.85 K, Crystal | 257 ± 1.3 J/K/mol
212.58 K, Glass | 261.24 ± 1.3 J/K/mol
213.05 K, Crystal | 258.5 ± 1.3 J/K/mol
213.78 K, Glass | 262.57 ± 1.4 J/K/mol
214.26 K, Crystal | 259.91 ± 1.3 J/K/mol
214.99 K, Glass | 263.98 ± 1.4 J/K/mol
215.46 K, Crystal | 261.07 ± 1.3 J/K/mol
216.19 K, Glass | 265.4 ± 1.4 J/K/mol
216.66 K, Crystal | 262.4 ± 1.4 J/K/mol
217.4 K, Glass | 266.56 ± 1.4 J/K/mol
217.87 K, Crystal | 263.65 ± 1.4 J/K/mol
218.61 K, Glass | 267.89 ± 1.4 J/K/mol
219.07 K, Crystal | 265.56 ± 1.4 J/K/mol
220 K, Crystal | 266.48 ± 1.3 J/K/mol
220.27 K, Crystal | 266.4 ± 1.4 J/K/mol
221.02 K, Glass | 272.13 ± 1.4 J/K/mol
221.47 K, Crystal | 268.06 ± 1.4 J/K/mol
222.24 K, Glass | 272.71 ± 1.4 J/K/mol
222.68 K, Crystal | 269.47 ± 1.4 J/K/mol
223.45 K, Glass | 273.71 ± 1.4 J/K/mol
223.88 K, Crystal | 270.8 ± 1.4 J/K/mol
224.67 K, Glass | 275.46 ± 1.4 J/K/mol
225.09 K, Crystal | 272.13 ± 1.4 J/K/mol
225.88 K, Glass | 277.37 ± 1.4 J/K/mol
226.29 K, Crystal | 273.38 ± 1.4 J/K/mol
227.1 K, Glass | 279.45 ± 1.5 J/K/mol
227.5 K, Crystal | 274.88 ± 1.4 J/K/mol
228.32 K, Glass | 281.53 ± 1.5 J/K/mol
228.7 K, Crystal | 276.37 ± 1.4 J/K/mol
229.54 K, Glass | 283.61 ± 1.5 J/K/mol
229.91 K, Crystal | 277.7 ± 1.4 J/K/mol
230 K, Crystal | 277.79 ± 1.5 J/K/mol
230.75 K, Glass | 286.52 ± 1.5 J/K/mol
231.12 K, Crystal | 278.7 ± 1.4 J/K/mol
231.96 K, Glass | 291.09 ± 1.5 J/K/mol
232.32 K, Crystal | 280.03 ± 1.5 J/K/mol
233.16 K, Glass | 296.83 ± 1.6 J/K/mol
233.53 K, Crystal | 281.78 ± 1.5 J/K/mol
234.33 K, Metastable liquid | 313.12 ± 1.7 J/K/mol
234.74 K, Crystal | 283.36 ± 1.5 J/K/mol
235.47 K, Metastable liquid | 327.51 ± 2 J/K/mol
235.95 K, Crystal | 284.69 ± 1.5 J/K/mol
236.57 K, Metastable liquid | 370.08 ± 2.1 J/K/mol
237.15 K, Crystal | 286.77 ± 1.5 J/K/mol
237.72 K, Metastable liquid | 379.14 ± 1.9 J/K/mol
238.37 K, Crystal | 287.51 ± 1.5 J/K/mol
238.92 K, Metastable liquid | 380.05 ± 1.9 J/K/mol
239.58 K, Crystal | 289.09 ± 1.5 J/K/mol
240 K, Crystal | 289.26 ± 1.5 J/K/mol
240.13 K, Metastable liquid | 380.22 ± 1.9 J/K/mol
240.79 K, Crystal | 290.51 ± 1.5 J/K/mol
241.35 K, Metastable liquid | 381.3 ± 1.9 J/K/mol
242 K, Crystal | 291.5 ± 1.5 J/K/mol
242.56 K, Metastable liquid | 382.3 ± 2 J/K/mol
243.21 K, Crystal | 292.84 ± 1.5 J/K/mol
243.77 K, Metastable liquid | 383.46 ± 2 J/K/mol
244.43 K, Crystal | 294.58 ± 1.5 J/K/mol
244.99 K, Metastable liquid | 384.21 ± 2 J/K/mol
245.64 K, Crystal | 295.99 ± 1.5 J/K/mol
246.85 K, Crystal | 297.24 ± 1.6 J/K/mol
248.06 K, Crystal | 298.57 ± 1.6 J/K/mol
249.28 K, Crystal | 300.07 ± 1.6 J/K/mol
250 K, Crystal | 300.9 ± 1.5 J/K/mol
250.5 K, Crystal | 301.73 ± 1.6 J/K/mol
251.71 K, Crystal | 302.73 ± 1.6 J/K/mol
252.92 K, Crystal | 304.39 ± 1.6 J/K/mol
254.14 K, Crystal | 305.89 ± 1.6 J/K/mol
255.35 K, Crystal | 307.72 ± 1.6 J/K/mol
256.57 K, Crystal | 309.05 ± 1.6 J/K/mol
257.78 K, Crystal | 310.55 ± 1.6 J/K/mol
259 K, Crystal | 311.96 ± 1.6 J/K/mol
260 K, Crystal | 312.62 ± 1.7 J/K/mol
260.22 K, Crystal | 313.46 ± 1.7 J/K/mol
261.44 K, Crystal | 315.12 ± 1.7 J/K/mol
262.65 K, Crystal | 316.28 ± 1.7 J/K/mol
263.87 K, Crystal | 317.61 ± 1.7 J/K/mol
265.09 K, Crystal | 319.11 ± 1.7 J/K/mol
266.31 K, Crystal | 320.52 ± 1.7 J/K/mol
267.53 K, Crystal | 322.93 ± 1.7 J/K/mol
268.76 K, Crystal | 323.52 ± 1.7 J/K/mol
269.98 K, Crystal | 324.6 ± 1.7 J/K/mol
270 K, Crystal | 324.6 ± 1.7 J/K/mol
271.2 K, Crystal | 326.68 ± 1.7 J/K/mol
272.42 K, Crystal | 327.92 ± 1.7 J/K/mol
273.64 K, Crystal | 329.92 ± 1.7 J/K/mol
274.86 K, Crystal | 331.08 ± 1.7 J/K/mol
276.09 K, Crystal | 332.58 ± 1.7 J/K/mol
277.31 K, Crystal | 333.99 ± 1.7 J/K/mol
278.53 K, Crystal | 335.41 ± 1.7 J/K/mol
279.76 K, Crystal | 336.82 ± 1.7 J/K/mol
280 K, Crystal | 336.82 ± 1.7 J/K/mol
280.98 K, Crystal | 337.98 ± 1.7 J/K/mol
282.21 K, Crystal | 338.98 ± 1.7 J/K/mol
283.43 K, Crystal | 341.06 ± 1.7 J/K/mol
284.66 K, Crystal | 342.56 ± 1.7 J/K/mol
285.89 K, Crystal | 344.14 ± 1.7 J/K/mol
287.11 K, Crystal | 345.22 ± 1.7 J/K/mol
288.31 K, Crystal | 347.05 ± 1.7 J/K/mol
289.54 K, Crystal | 348.38 ± 1.8 J/K/mol
290 K, Crystal | 349.21 ± 1.7 J/K/mol
290.77 K, Crystal | 349.96 ± 1.8 J/K/mol
291.99 K, Crystal | 351.2 ± 1.8 J/K/mol
293.22 K, Crystal | 353.2 ± 1.8 J/K/mol
294.45 K, Crystal | 354.45 ± 1.8 J/K/mol
295.68 K, Crystal | 355.94 ± 1.8 J/K/mol
296.91 K, Crystal | 357.69 ± 1.8 J/K/mol
298.15 K, Crystal | 359.02 ± 1.8 J/K/mol and 359.52 ± 1.9 J/K/mol
299.38 K, Crystal | 360.35 ± 1.8 J/K/mol
300 K, Crystal | 361.85 ± 1.9 J/K/mol
300.82 K, Crystal | 363.01 ± 1.8 J/K/mol
302.44 K, Crystal | 364.84 ± 1.9 J/K/mol
304.06 K, Crystal | 367.75 ± 1.9 J/K/mol
305.69 K, Crystal | 370.08 ± 1.9 J/K/mol
307.33 K, Crystal | 372.49 ± 1.9 J/K/mol
308.97 K, Crystal | 374.65 ± 1.9 J/K/mol
310 K, Crystal | 376.4 ± 1.9 J/K/mol
310.62 K, Crystal | 377.23 ± 1.9 J/K/mol
312.28 K, Crystal | 379.97 ± 1.9 J/K/mol
313.94 K, Crystal | 385.62 ± 2 J/K/mol
315.6 K, Crystal | 386.71 ± 2 J/K/mol
317.26 K, Crystal | 392.78 ± 2 J/K/mol
318.94 K, Crystal | 397.18 ± 2 J/K/mol
320 K, Crystal | 390.45 ± 1.9 J/K/mol
320.63 K, Crystal | 403.09 ± 2.1 J/K/mol
322.32 K, Crystal | 412.15 ± 2.1 J/K/mol
324.01 K, Crystal | 420.79 ± 2.2 J/K/mol
325.71 K, Crystal | 441.66 ± 2.3 J/K/mol
327.44 K, Crystal | 477.92 ± 2.6 J/K/mol
330 K, Crystal | 404.5 ± 2.1 J/K/mol
334.8 K, Crystal | 411.23 ± 2.1 J/K/mol
334.8 K, Liquid | 446.57 ± 2.2 J/K/mol
340 K, Liquid | 449.23 ± 2.2 J/K/mol
340.68 K, Liquid | 450.39 ± 2.3 J/K/mol
344.79 K, Liquid | 449.98 ± 2.3 J/K/mol
346.59 K, Liquid | 452.64 ± 2.3 J/K/mol
348.4 K, Liquid | 452.39 ± 2.3 J/K/mol
350 K, Liquid | 454.39 ± 2.2 J/K/mol
350.22 K, Liquid | 454.88 ± 2.3 J/K/mol
352.05 K, Liquid | 456.21 ± 2.3 J/K/mol
353.89 K, Liquid | 457.05 ± 2.3 J/K/mol
355.75 K, Liquid | 456.96 ± 2.3 J/K/mol
357.6 K, Liquid | 459.21 ± 2.3 J/K/mol
359.66 K, Liquid | 460.7 ± 2.3 J/K/mol
360 K, Liquid | 459.54 ± 2.2 J/K/mol
361.55 K, Liquid | 460.21 ± 2.3 J/K/mol
363.45 K, Liquid | 461.62 ± 2.3 J/K/mol
365.36 K, Liquid | 462.28 ± 2.3 J/K/mol
367.28 K, Liquid | 462.87 ± 2.3 J/K/mol
369.21 K, Liquid | 463.95 ± 2.3 J/K/mol
370 K, Liquid | 464.7 ± 2.2 J/K/mol
371.16 K, Liquid | 464.86 ± 2.3 J/K/mol
